Reference: US11957646B2, “Methods and compositions of stable phenylephrine formulations” (Paragon BioTeck, Inc., priority 2013, dated 2024)

Experiments:
[1] = tested on: vasopressor effect of (−)-epinephrine, (−)-norepinephrine, and tetraethylammonium; settings: anesthetized rats, infusion of large amount; cited from earlier work
rabbit pupil = experiment: Dilation assay of R and S form phenylephrine solutions on rabbits; format: in vivo, NZW rabbits; settings: 10% solution, 3 drops, versus untreated eye
Method: Two ophthalmic formulations, formulated 10% Phenylephrine hydrochloride (S-isomer) and the exemplary invention composition, 10% Phenylephrine hydrochloride (R-isomer) were tested for their ocular activity in NZW rabbits.
Both R and S form solutions (10% solution prepared as in Example 1) were test for dilation on rabbits. The first test rabbit received 3 drops of the S form formulation and the second test rabbit received 3 drops of the R form solution.

[2] = Chiral purity by chiral HPLC before and after 6 months storage at 2 to 8° C.; format: physicochemical; settings: 10% solution
Method: Column-OJ-RH (150×4.6) mm, Flow: 0.6 ml min-1, Mobile Phase: 0.05% Ethylenediamine in Methanol, Column Temp: 25° C.; Detection wavelength: 270 nm. 4.0 mg sample in 1 mL ethanol was analyzed. The injection volume to HPLC is 3.0 μL.
R-Phenylephrine Hydrochloride Opthalmic Solution, 2.5% and 10% prepared as in Example 1 were stored at 2 to 8° C. The chiral purity of Sample 1 (10% solution) was assessed before low temperature stability test.
The chiral purity of R-Phenylephrine Hydrochloride was determined by the method and conditions as shown in Example 3.

| Compound | tachyphylaxis to vasopressor effect [1] | also measured |
| --- | --- | --- |
| CNC[C@H](O)c1cccc(O)c1 [(−)-phenylephrine] | induces tachyphylaxis |  |
| CNCCc1ccc(O)c(O)c1 [epinine] | induces tachyphylaxis |  |
| CNC[C@@H](O)c1cccc(O)c1 [S-Phenylephrine] | induces tachyphylaxis | pupil dilation (rabbit pupil): dilated the eye only slightly more than that was untreated |
| CNC[C@H](O)c1cccc(O)c1.Cl [R-Phenylephrine Hydrochloride, (R)-3-hydroxy-α-[(methylamino)methyl]benzenemethanol hydrochloride] |  | chiral purity before storage ([2]; before low temperature stability test): 99.3 % ee; chiral purity after 6 months storage ([2]; stored at 2 to 8° C. for 6 months): 99.3 % ee |
| CNCC(O)c1ccc(O)c(O)c1 (single isomer, unassigned; (+)) [(+)-epinephrine] | induces tachyphylaxis |  |
| NCC(O)c1ccc(O)c(O)c1 (single isomer, unassigned; (+)) [(+)-norepinephrine] | induces tachyphylaxis |  |
